US20240327417A1, “HETEROCYCLIC COMPOUNDS” (BeiGene Switzerland GmbH, priority 2021, published 2024)

Columns and labels:
[1] = target: T1, Full length DGKζ (in-house protein M1-V929) (Homo sapiens, UniProt Q13574); assay: Biochemical DGK IC50 assay (ADP-Glo, lipid micelle substrate), DGKζ; conditions: 0.5 nM enzyme, 140 μM ATP, 80 μM DAG, 1 hour preincubation, 1 hour reaction, room temperature, read-out: IC50s for DGKζ
T1 construct: His (N); TEV cleavage site (N); made in house; host or cells: Sf9 insect cells (baculovirus, Bac-to-Bac)
T1 sequence (Q13574 1-929 isoform Q13574-4): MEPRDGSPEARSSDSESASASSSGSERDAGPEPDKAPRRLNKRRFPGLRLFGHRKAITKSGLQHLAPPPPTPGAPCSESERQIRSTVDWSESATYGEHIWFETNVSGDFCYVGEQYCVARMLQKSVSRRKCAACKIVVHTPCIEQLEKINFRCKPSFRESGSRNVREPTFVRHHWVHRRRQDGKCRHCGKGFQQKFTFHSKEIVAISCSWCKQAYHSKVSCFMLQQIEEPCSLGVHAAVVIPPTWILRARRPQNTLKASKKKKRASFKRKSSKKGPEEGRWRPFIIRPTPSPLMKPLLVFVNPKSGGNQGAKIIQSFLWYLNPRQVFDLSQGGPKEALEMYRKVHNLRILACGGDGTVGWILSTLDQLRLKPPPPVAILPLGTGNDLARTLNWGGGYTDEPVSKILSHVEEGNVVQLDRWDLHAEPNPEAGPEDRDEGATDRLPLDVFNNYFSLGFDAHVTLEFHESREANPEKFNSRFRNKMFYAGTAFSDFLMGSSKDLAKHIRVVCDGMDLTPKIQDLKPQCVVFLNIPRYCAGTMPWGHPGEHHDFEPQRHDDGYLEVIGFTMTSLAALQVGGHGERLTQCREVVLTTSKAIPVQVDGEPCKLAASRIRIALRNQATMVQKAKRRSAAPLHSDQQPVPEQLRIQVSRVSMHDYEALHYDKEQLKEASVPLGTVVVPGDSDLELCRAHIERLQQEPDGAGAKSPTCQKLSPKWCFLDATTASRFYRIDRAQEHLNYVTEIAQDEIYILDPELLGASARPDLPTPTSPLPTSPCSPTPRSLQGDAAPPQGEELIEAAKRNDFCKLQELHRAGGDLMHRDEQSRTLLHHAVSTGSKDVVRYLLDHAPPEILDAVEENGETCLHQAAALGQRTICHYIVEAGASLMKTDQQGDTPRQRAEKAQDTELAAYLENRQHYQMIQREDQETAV
Method in brief: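 In-house full-length human DGKζ, baculovirus-expressed in Sf9 cells, was assayed with a DAG/PS lipid micelle substrate at room temperature. Buffer was 50 mM HEPES, 10 mM MgCl2, 0.01% BSA, 0.1 mM Na3VO4, 0.005% Tween-20, 0.01 mM CaCl2, with final compound 1.55˜10000 nM or 23.3˜150000 nM.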

[2] = target: T2, Full length DGKα (D21-10BG, SignalChem) (Homo sapiens, UniProt P23743); assay: Biochemical DGK IC50 assay (ADP-Glo, lipid micelle substrate), DGKα; conditions: 7.5 nM enzyme, 140 μM ATP, 80 μM DAG, 1 hour preincubation, 1 hour reaction, room temperature, read-out: IC50s for DGKα
T2 construct: Full length DGKα (D21-10BG, SignalChem); purchased SignalChem D21-10BG
T2 sequence (P23743 whole entry): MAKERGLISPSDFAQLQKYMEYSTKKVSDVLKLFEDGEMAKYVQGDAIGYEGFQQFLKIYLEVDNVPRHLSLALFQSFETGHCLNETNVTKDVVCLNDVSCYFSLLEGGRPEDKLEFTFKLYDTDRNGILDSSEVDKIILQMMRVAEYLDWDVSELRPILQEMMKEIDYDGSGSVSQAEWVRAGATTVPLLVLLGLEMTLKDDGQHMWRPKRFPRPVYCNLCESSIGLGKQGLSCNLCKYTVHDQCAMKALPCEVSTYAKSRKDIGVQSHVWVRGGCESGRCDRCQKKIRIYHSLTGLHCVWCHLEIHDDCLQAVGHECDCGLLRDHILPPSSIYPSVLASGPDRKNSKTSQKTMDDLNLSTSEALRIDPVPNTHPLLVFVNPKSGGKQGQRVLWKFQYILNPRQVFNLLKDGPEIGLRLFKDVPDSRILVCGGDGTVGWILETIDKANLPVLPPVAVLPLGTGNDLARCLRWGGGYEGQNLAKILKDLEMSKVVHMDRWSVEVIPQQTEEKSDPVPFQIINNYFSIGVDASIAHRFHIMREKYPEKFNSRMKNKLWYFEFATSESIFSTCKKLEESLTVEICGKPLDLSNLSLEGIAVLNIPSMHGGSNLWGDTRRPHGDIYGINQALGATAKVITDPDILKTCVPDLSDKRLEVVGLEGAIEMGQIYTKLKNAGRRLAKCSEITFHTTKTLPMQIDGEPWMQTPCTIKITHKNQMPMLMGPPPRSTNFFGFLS
Method in brief: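 Full-length enzyme was assayed by ADP-Glo on DAG/PS lipid micelles at room temperature in HEPES/MgCl2/CaCl2 buffer with BSA, Na3VO4 and Tween-20, using a 1 h reaction and luminescence read-out.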

Row | IC50 [1] | IC50 [2] | Compound
1 | 35 nM | 1270 nM | CC(c1ccc2nccnc2c1)N1C[C@H](C)N(c2cc(=O)n(C)n3cc(CC#N)nc23)C[C@H]1C (single isomer, unassigned) [Compound A1a]
2 | 1150 nM | 1160 nM | [2H]C([2H])([2H])c1nc2ccc(C(C)N3C[C@H](CC)N(c4cc(=O)n(C([2H])([2H])[2H])n5cc(CC#N)nc45)C[C@H]3CC)cc2s1 (single isomer, unassigned) [Compound A97b]
3 | 11 nM | 112 nM | CC[C@@H]1CN(c2cc(=O)n(C)n3cc(CC#N)nc23)[C@@H](C)CN1C(C)c1ccc2cc(C)sc2n1 (stereo partly drawn) [Compound A87, 2-(8-((2S,5R)-5-ethyl-2-methyl-4-(1-(2-methylthieno[2,3-b]pyridin-6-yl)ethyl)piperazin-1-yl)-5-methyl-6-oxo-5,6-dihydroimidazo[1,2-b]pyridazin-2-yl)acetonitrile]
4 | 7400 nM | 26800 nM | Cc1cnc2ccc(C(C)N3C[C@H](C)N(c4cc(=O)n(C)n5cc(CC#N)nc45)C[C@H]3C)cc2n1 (single isomer, unassigned) [Compound A2a]
5 | 480 nM | 4000 nM | COCc1cn2c(n1)c(N1C[C@@H](C)N(C(C)c3ccc4nccnc4c3)C[C@@H]1C)cc(=O)n2C (stereo partly drawn) [Compound A4, 8-((2S,5R)-2,5-dimethyl-4-(1-(quinoxalin-6-yl)ethyl)piperazin-1-yl)-2-(methoxymethyl)-5-methylimidazo[1,2-b]pyridazin-6(5H)-one]
6 | 1440 nM | 263 nM | CC#CCc1cn2c(n1)c(N1C[C@@H](CC)N(C(C)c3ccc4nc(C)sc4c3)C[C@@H]1C)cc(=O)n2C (stereo partly drawn) [Compound A69, 2-(but-2-yn-1-yl)-8-((2S,5R)-5-ethyl-2-methyl-4-(1-(2-methylbenzo[d]thiazol-6-yl)ethyl)piperazin-1-yl)-5-methylimidazo[1,2-b]pyridazin-6(5H)-one]
7 | 2940 nM | 712 nM | CCC(c1ccc2nc(C)sc2n1)N1C[C@H](CC)N(c2cc(=O)n(C)n3cc(CC#N)nc23)C[C@H]1C (single isomer, unassigned) [Compound A98a]
8 | 10 nM | 858 nM | CC(c1ccc2c(c1)OC(C)(C)CO2)N1C[C@H](C)N(c2c(C#N)c(=O)n(C)n3cc(CC#N)nc23)C[C@H]1C (mixture of isomers) [Compound A27, 2-(cyanomethyl)-8-((2S,5R)-4-(1-(3,3-dimethyl-2,3-dihydrobenzo[b][1,4]dioxin-6-yl)ethyl)-2,5-dimethylpiperazin-1-yl)-5-methyl-6-oxo-5,6-dihydroimidazo[1,2-b]pyridazine-7-carbonitrile]
9 | 11 nM | 21 nM | CCC(c1ccc2nc(C)sc2n1)N1C[C@H](CC)N(c2cc(=O)n(C)n3cc(CC#N)nc23)C[C@H]1CC (single isomer, unassigned) [Compound A99b]
10 | 3120 nM | 42 nM | CC[C@H]1CN(C(C)c2ccncc2)[C@H](CC)CN1c1cc(=O)n(C)n2cc(CC#N)nc12 (stereo partly drawn) [Compound A35, 2-(8-((2S,5R)-2,5-diethyl-4-(1-(pyridin-4-yl)ethyl)piperazin-1-yl)-5-methyl-6-oxo-5,6-dihydroimidazo[1,2-b]pyridazin-2-yl)acetonitrile]
11 | 16 nM | 3090 nM | CC(c1ccc2c(c1)OC(C)(C)CO2)N1C[C@H](C)N(c2c(F)c(=O)n(C)n3cc(CC#N)nc23)C[C@H]1C (mixture of isomers) [Compound A26, 2-(8-((2S,5R)-4-(1-(3,3-dimethyl-2,3-dihydrobenzo[b][1,4]dioxin-6-yl)ethyl)-2,5-dimethylpiperazin-1-yl)-7-fluoro-5-methyl-6-oxo-5,6-dihydroimidazo[1,2-b]pyridazin-2-yl)acetonitrile]
12 | 118 nM | 185 nM | CC[C@@H]1CN(c2c(C#N)c(=O)n(C)n3cc(CC#N)nc23)[C@@H](C)CN1C(C)c1ccc2nc(C)sc2n1 (single isomer, unassigned) [Compound A113a]
13 | 33 nM | 54 nM | [2H]C([2H])([2H])c1nc2ccc(C(C)N3C[C@H](CC)N(c4cc(=O)n(C)n5cc(CC#N)nc45)C[C@H]3CC)cc2s1 (single isomer, unassigned) [Compound A96a]
14 | 623 nM | 735 nM | CC[C@H]1CN(C(CCOC)c2ccc3nc(C)sc3c2)[C@H](CC)CN1c1cc(=O)n(C)n2cc(CC#N)nc12 (single isomer, unassigned) [Compound A102b]
15 | 52 nM | 87 nM | CC[C@H]1CN(C(C)c2ccc(C(F)(F)F)cc2F)[C@H](CC)CN1c1cc(=O)n(C)n2cc(CC#N)nc12 (single isomer, unassigned) [Compound A92a]
16 | 95 nM | 10800 nM | Cc1cnc2ccc(C(C)N3C[C@H](C)N(c4c(F)c(=O)n(C)n5cc(CC#N)nc45)C[C@H]3C)cc2n1 (stereo partly drawn) [Compound A22, 2-(8-((2S,5R)-2,5-dimethyl-4-(1-(3-methylquinoxalin-6-yl)ethyl)piperazin-1-yl)-7-fluoro-5-methyl-6-oxo-5,6-dihydroimidazo[1,2-b]pyridazin-2-yl)acetonitrile]
17 | 46 nM | 378 nM | CC[C@H]1CN(C(CCOC)c2ccc3nc(C)sc3c2)[C@H](CC)CN1c1cc(=O)n(C)n2cc(CC#N)nc12 (single isomer, unassigned) [Compound A102a]
18 | 96 nM | 26 nM | CC[C@@H]1CN(c2cc(=O)n(C)n3cc(CC#N)nc23)[C@@H](C)CN1C(C)c1ccc2cc(F)sc2n1 (stereo partly drawn) [Compound A106, 2-(8-((2S,5R)-5-ethyl-4-(1-(2-fluorothieno[2,3-b]pyridin-6-yl)ethyl)-2-methylpiperazin-1-yl)-5-methyl-6-oxo-5,6-dihydroimidazo[1,2-b]pyridazin-2-yl)acetonitrile]
19 | 1940 nM | 454 nM | CCC(c1ccc(C(F)(F)F)cc1)N1C[C@H](CC)N(c2cc(=O)n(C)n3cc(CC#N)nc23)C[C@H]1CC (single isomer, unassigned) [Compound A77b]
20 | > 10000 nM | 6400 nM | CC[C@@H]1CN(c2cc(=O)n(C)n3cc(CC#N)nc23)[C@@H](COC)CN1C(C)c1ccc2nc(C)sc2n1 (single isomer, unassigned) [Compound A108a]
21 | 158 nM | 157 nM | CC[C@H]1CN(C(C)c2ccc3scnc3c2)[C@H](CC)CN1c1cc(=O)n(C)n2cc(CC#N)nc12 (single isomer, unassigned) [Compound A65b]
22 | 844 nM | 1270 nM | CC[C@H]1CN(C(C)c2ccc(C(C)(C)O)nc2)[C@H](CC)CN1c1cc(=O)n(C)n2cc(CC#N)nc12 (stereo partly drawn) [Compound A41, 2-(8-((2S,5R)-2,5-diethyl-4-(1-(6-(2-hydroxypropan-2-yl)pyridin-3-yl)ethyl)piperazin-1-yl)-5-methyl-6-oxo-5,6-dihydroimidazo[1,2-b]pyridazin-2-yl)acetonitrile]
23 | 3500 nM | 752 nM | CC[C@H]1CN(C(C)c2ccc3nc(C)sc3n2)[C@H](CC)CN1c1c(C#N)c(=O)n(C)n2cc(CC#N)nc12 (single isomer, unassigned) [Compound A112a]
24 | 6.4 nM | 122 nM | CC[C@H]1CN(C(C)c2ccc(C(C)(C)F)nc2)[C@H](CC)CN1c1cc(=O)n(C)n2cc(CC#N)nc12 (single isomer, unassigned) [Compound A46a]
25 | 1230 nM | 4650 nM | CC[C@@H]1CN(c2cc(=O)n(C)n3cc(COC)nc23)[C@@H](C)CN1C(C)c1ccc(C(F)(F)F)cc1F (single isomer, unassigned) [Compound A16a]
26 | 18 nM | 1020 nM | COc1cnc2ccc(C(C)N3C[C@H](C)N(c4cc(=O)n(C)n5cc(CC#N)nc45)C[C@H]3C)cc2n1 (stereo partly drawn) [Compound A20, 2-(8-((2S,5R)-4-(1-(3-methoxyquinoxalin-6-yl)ethyl)-2,5-dimethylpiperazin-1-yl)-5-methyl-6-oxo-5,6-dihydroimidazo[1,2-b]pyridazin-2-yl)acetonitrile]
27 | 706 nM | 195 nM | CC[C@H]1CN(C(C)c2ccc3cc(F)sc3n2)[C@H](CC)CN1c1cc(=O)n(C)n2cc(CC#N)nc12 (single isomer, unassigned) [Compound A105a]
28 | 3150 nM | 739 nM | CC[C@@H]1CN(c2cc(=O)n(C)n3cc(C=NOC)nc23)[C@@H](C)CN1C(C)c1ccc2nccnc2c1 (single isomer, unassigned) [Compound A9a]
29 | 22 nM | 105 nM | CC[C@H]1CN(C(C)c2ccc3scnc3c2F)[C@H](CC)CN1c1cc(=O)n(C)n2cc(CC#N)nc12 (single isomer, unassigned) [Compound A66a]
30 | 2910 nM | 651 nM | CC[C@@H]1CN(c2c(C#N)c(=O)n(C)n3cc(CC#N)nc23)[C@@H](C)CN1C(C)c1ccc2nc(C)sc2n1 (single isomer, unassigned) [Compound A113b]
